The values below come from EPA's ToxValDB 9.5.

Data set [1] relates to Rattus norvegicus.
The subject of data set [2] is Oryctolagus sp.
For data set [3], the system named is Mus musculus. To be noted: for LOAEL / NOAEL: inhalation.
The test system of data set [4] is Rattus norvegicus. To be noted: chronic; duration: 2 years; oral; diet; M/F; albino; Whole Body Effects.
Data set [5] relates to Rattus norvegicus. To be noted: subchronic; duration: 90 days; oral; gavage; Blood: Increased alkaline phosphatase + Blood: Increased SGPT + Brain: Decreased weight.
The subject of data set [6] is Primate. To be noted: inhalation.
Data set [7] concerns Rattus norvegicus. To be noted: repeat dose other; oral.
For data set [8], the system named is Anas platyrhynchos. To be noted: oral.
Data set [9] deals with Mus musculus. Particulars: oral, M/F; for NOEL: duration: 2 years, Albino, increased liver weight.
Data set [10] relates to Canidae.
Data set [11] deals with Mus musculus. Particulars: subchronic; duration: 13 weeks; oral; diet; Testis: Damage.
Data set [12] relates to Rattus norvegicus. To be noted: subchronic, oral, Fischer 344.
Data set [13] concerns Mus musculus. To be noted: repeat dose other; oral.
Data set [14] has as its system Mus musculus. Particulars: oral, drinking water.
Data set [15] has as its system Mus musculus. To be noted: oral, drinking water, B6C3F1, immunological.
The test system of data set [16] is Rattus norvegicus. Particulars: subchronic; duration: 90 days; oral; M/F; reduced body weight and neurotoxicity.
Data set [17] concerns Neovison sp. To be noted: repeat dose other; oral; Mink.
The mark [18] stands for this setting: developmental, duration: 11 days, inhalation, Sprague-Dawley.
Setting [19] is: short-term, duration: 4 weeks, inhalation, Sprague-Dawley.
Where [20] appears, read: subchronic, duration: 90 days, oral, gavage, Sprague-Dawley.
The mark [21] stands for this setting: reproduction developmental, duration: 6 days, Macaca Fascicularis.
[22] abbreviates: reproduction developmental, duration: 20 days, F, CD1.
Setting [23] is: chronic, duration: 78 weeks, diet, CD1, Increased incidences of fatty change & hypertrophy in hepatocytes.

Take `O=C(O)CCCCC(=O)O` [Hexanedioic acid]: the LC50 in data set [1] (acute, Inhalation, Sprague-Dawley) was > 7.7 mg/L. For the same molecule, the LD50 in data set [1] (acute, oral, Sprague-Dawley) is 5050 mg/kg; in data set [2] (acute, dermal, occlusive, New Zealand), > 7940 mg/kg; in data set [3] (acute, oral), 1900 mg/kg. Further, the no-observed-adverse-effect level (NOAEL) is > 288 mg/kg-day in [1] (developmental, duration: 10 days, oral, gavage, Wistar); > 250 mg/kg-day in data set [2] (developmental, duration: 13 days, oral, gavage, Dutch-belted); 470 mg/kg-day in data set [4].
As to `CO` [Methanol], in data set [5], the NOEL was 500 mg/kg-day. Besides, the lowest observed adverse effect level (LOAEL) is ≤ 6550 mg/m3 in data set [1] (setting [18]); ≤ 26200 mg/m3 in data set [1] (developmental, duration: 19 days, inhalation, Sprague-Dawley); ≤ 26200 mg/m3 in data set [1] (reproduction developmental, duration: 19 days, inhalation, F, Sprague-Dawley); 6550 mg/m3 in data set [1] (setting [19]); 2500 mg/kg-day in data set [1] (setting [20]); 6550 mg/m3 in data set [6] (setting [21]). For the same molecule, the LOAEL in data set [3] (developmental, duration: 10 days, CD1) is 2620 mg/m3; in [3] (developmental, duration: 20 days, CD1) it was 13100 mg/m3; in data set [3] (setting [22]) it was ≤ 19700 mg/m3; in data set [7], 250 mg/kg-day. Also, the NOAEL is ≥ 1310 mg/m3 in data set [1] (setting [18]); > 1310 mg/m3 in data set [1] (reproduction developmental, duration: 11 days, inhalation, F, Sprague-Dawley); 131 mg/m3 in data set [1] (reproduction developmental, duration: 365 days, inhalation, Sprague-Dawley, generation: F0); 131 mg/m3 in data set [1] (reproduction developmental, duration: 365 days, inhalation, Sprague-Dawley, generation: F1); 131 mg/m3 in data set [1] (reproduction developmental, duration: 365 days, inhalation, Sprague-Dawley, generation: F2); ≥ 3930 mg/m3 in data set [1] (setting [19]). The no-observed-adverse-effect level (NOAEL) in data set [1] (setting [20]) was > 500 mg/kg-day; in data set [6] (developmental, duration: 120 days, Macaca Fascicularis) it was > 2360 mg/m3; in [6] (setting [21]) it was 3930 mg/m3; in data set [6] (reproduction developmental, duration: 120 days, F, Macaca Fascicularis), > 2360 mg/m3; in [6] (reproduction developmental, duration: 365 days, generation: F0), > 2360 mg/m3; in [3] (reproduction developmental, duration: 18 months, B6C3F1), > 1310 mg/m3. Moreover, the NOAEL in data set [3] (reproduction developmental, duration: 10 days, F, CD1) was > 19700 mg/m3; in data set [3] (setting [22]) it was ≥ 13100 mg/m3; in data set [7], 50 mg/kg-day.
In data set [8], `[CH3][Hg]/[N]=C(\N)NC#N` [Methyl mercury dicyandiamide] had an LOAEL of 0.064 mg/kg-day and a no-observed-adverse-effect level (NOAEL) of 0.0064 mg/kg-day.
In [9] (setting [23]), `C[C@](C#N)(COc1cc(C#N)ccc1C(F)(F)F)NC(=O)c1ccc(SC(F)(F)F)cc1` [Monepantel] gave an LOAEL of 5.5 mg/kg-day and a no observed adverse effect level (NOAEL) of 1.8 mg/kg-day.
The molecule `c1ccc(Nc2cccc3ccccc23)cc1` [N-Phenyl-1-naphthylamine] gave an NOAEL in [10] (chronic, duration: 36 months, oral, diet, Dog Other) of 290 mg/kg-day.
Consider `O=C1CN(/N=C/c2ccc([N+](=O)[O-])o2)C(=O)N1` [Nitrofurantoin], for which the no-observed-adverse-effect level (NOAEL) in data set [11] turned out to be 59.1 mg/kg-day. Also, in data set [12] (duration: 13 weeks, diet, M/F, Deaths + Body Weight Changes: decrease + Urinalysis: Bright yellow + Absolute Organ Weight: Liver increase + Relative Organ Weight: Liver …), the NOEL was < 57.6 mg/kg-day.
Molecule `O=[Se]([O-])[O-].[Na+].[Na+]` [Sodium selenite] came in with an LOAEL in [8] of 1 mg/kg-day. The NOAEL in data set [8] came out at 0.5 mg/kg-day. Further, the NOEL in data set [12] (drinking water, F, Deaths + Body Weight Changes: decrease + Water Consumption: decrease + Hematology: Hct increase, Hgb increase, RBC increase + Blood …) is 0.17 mg/kg-day; in [12] (drinking water, M/F, Deaths + Body Weight Changes: decrease + Water Consumption: decrease + Hematology: Hct increase, Hgb increase, RBC increase + Blood …), 0.304 mg/kg-day.
In data set [13], `[Mo].[O-2].[O-2].[O-2].[O-2]` [Tetraoxomolybdate(2-)] returned an LOAEL of 2.6 mg/kg-day and a no observed adverse effect level (NOAEL) of 0.26 mg/kg-day.
Regarding `ClC=C(Cl)Cl` [Trichloroethylene], the LOAEL in [14] (chronic, duration: 30 weeks, F, Decreased thymus weight in female B6C3F1 mice) came to 0.35 mg/kg-day; in [14] (developmental, M/F, reduced plaque-forming cell (pfc) response, increased delayed-type hypersensitivity in b6c3f1 mice), 0.37 mg/kg-day; in data set [13], 7 mg/kg-day; in data set [15] (chronic, duration: 1 years, M/F), 0.37 mg/kg-day; in data set [15] (chronic, duration: 30 weeks, F) it was 0.35 mg/kg-day; in data set [15] (developmental, duration: 364 days, M/F), 0.37 mg/kg-day. Further, in data set [13], the NOAEL came out at 0.7 mg/kg-day. Also, in [12] (duration: 13 weeks, gavage, M/F, Histopathology: Lung-Pulmonary vasculitis Kidney-Cytomegaly/Karyomegaly, Renal tubular epithelial cell in the inner cortex), the NOEL came out at 1000 mg/kg-day.
`CSc1nc2cc(Oc3cccc(Cl)c3Cl)c(Cl)cc2[nH]1` [Triclabendazole]: the NOEL amounted to 0.27 mg/kg-day in [9] (Chronic / dietary, feed) and 0.27 mg/kg-day in data set [9] (chronic, diet).
Turning to `FC(F)F` [Trifluoromethane], the lowest observed adverse effect level (LOAEL) in [10] (repeat dose other, inhalation, Beagle) is > 14300 mg/m3.
In [16], `Cc1ccccc1O` [o-Cresol] registered an LOAEL of 150 mg/kg-day and a no-observed-adverse-effect level (NOAEL) of 50 mg/kg-day. Moreover, in data set [17], the no observed adverse effect level (NOAEL) came to 219 mg/kg-day.

As usually defined, the LC50 is the concentration that kills 50% of the test population. A low value points to a more lethal substance. Usually LD50 stands for the dose at which mortality reaches 50%. Low readings indicate a more toxic substance, high ones a less toxic substance. One may read the NOAEL as the highest tested level that showed no adverse finding. Usually LOAEL stands for the lowest dose or exposure tested at which an adverse effect was seen.
